40 compounds from ChEMBL document CHEMBL3507680, “University of Dundee, Gates Library screen for HepG2 cell viability” can be followed below.

A short description of the series: Human HepG2 cell viability assay in 384 well format. The class given is toxicity, cell-based. Also noted: dose 125 nL, time 70.5 hour; cytotoxicity at 70.5 h: concentration not given beside the values. The settings on record: HepG2 cells, read-out: Inhibition.
With `CCc1cnc(CN(C)C(=O)Nc2cnn(CC3CCCO3)c2)s1` (stereo not given), the cytotoxicity at 70.5 h is -4.76%. As to `Cc1c(C(=O)NC2=NCCS2)cnn1-c1ccc(Br)cc1`, the cytotoxicity at 70.5 h was -15%.

In the case of `CCN(CC)C(=O)[C@@H]1C[C@@H](n2cc(-c3ccccn3)nn2)CN1`, the cytotoxicity at 70.5 h was -3.65%. Take `CNc1ccnc(NCCC(=O)Nc2ccccc2C)n1`: the cytotoxicity at 70.5 h was -4.65%. Consider `CNC(=O)c1ccc2c(c1)C1(CCN(C(C)C)CC1)C(=O)N2`, for which the cytotoxicity at 70.5 h was determined as 2.6%. Turning to `COc1ccc(C(=O)NCCCC2(C3OCCO3)CCOCC2)cc1`, the cytotoxicity at 70.5 h is -1.34%.

As for `CN1CCOCC2(CCCN(C(=O)c3ccc(-n4cccc4)cc3)C2)C1` (stereo not given), the cytotoxicity at 70.5 h worked out at 9.26%. Regarding `COc1ccc(C(=O)N2CCCC2c2noc(C(C)C)n2)nn1` (stereo not given), the cytotoxicity at 70.5 h was -4.87%. For the compound `Cc1ccc2c(c1)CN(C(=O)c1cnc(C)cn1)C(CN(C)C)CO2` (stereo not given), the cytotoxicity at 70.5 h was 14.1%. As to `CCc1cnc(N2CCC3(CC2)CCN(c2cnn(C)c2)C3=O)nc1`, the cytotoxicity at 70.5 h was 31.2%. On to `O=C(c1ccc(O)nc1)N1CCc2ccc(O)cc2C1`, for which the cytotoxicity at 70.5 h was -13%. As for `Cc1nnsc1C(=O)NCc1cccnc1N(C)C`, the cytotoxicity at 70.5 h is -3.02%. As for `OCCN(Cc1ccccc1)Cc1nc(-c2ccc3c(c2)OCO3)no1`, the cytotoxicity at 70.5 h was -9.5%. The value for `CC(C)c1nnc(CNC2CCCN(Cc3noc(C4CC4)n3)C2)o1` (stereo not given) was -5.67%; that for `Cc1nn(-c2cc(Cl)cc(Cl)c2)c(C)c1CCC(=O)O` was -5.45%; that for `COCCOc1ncccc1C(=O)N(C)c1nccs1` was -14.2%. For the compound `CN1CCN(CC2CC2)C(=O)c2cnc(N3CCOCC3)nc21`, the cytotoxicity at 70.5 h was -3.35%. Consider `O=C1NCCCC12CCN(S(=O)(=O)N1CCOCC1)C2` (stereo not given), for which the cytotoxicity at 70.5 h was -6.49%. On to `N[C@H]1CC[C@@H](NC(=O)c2ccc3nc(-c4ccc(F)cc4)cn3c2)CC1`, for which the cytotoxicity at 70.5 h was -14.6%. The value for `O=C(Cc1ccccn1)N1CCC(O)(Cn2ccc3ccncc32)CC1` was -6.87%.

Consider `Cc1cc(C)n(C2CCCN(C(=O)c3ccc(F)c(F)c3)C2)n1` (stereo not given), for which the cytotoxicity at 70.5 h came to 9.19%.

As for `O=C(NCc1ccc(F)cc1)N1CCN(CC(O)C2CC2)CC1` (stereo not given), the cytotoxicity at 70.5 h is -2.01%.

As to `FC(F)(F)Cn1ccnc1CN1CCOC(Cn2cccn2)C1` (stereo not given), the cytotoxicity at 70.5 h was -2.61%. As to `CC(=O)N1CCC2(CC1)CN(CC(C)C)CC21CCNC1=O` (stereo not given), the cytotoxicity at 70.5 h worked out at 13.6%. As to `O=c1ccc2c([nH]1)CCN(S(=O)(=O)c1ccc3c(c1)CCCC3)C2`, the cytotoxicity at 70.5 h was 3.55%. In the case of `CCOCC(=O)N1CCC(c2nccn2C)CC1`, the cytotoxicity at 70.5 h amounted to 2.76%. For the compound `Cc1ccc(NC(=O)N(CCO)CCO)c(OCc2ccccc2)c1`, the cytotoxicity at 70.5 h was determined as 10.5%.

As to `CCOc1ccnc(NCc2nc(C)cc(C(F)(F)F)n2)n1`, the cytotoxicity at 70.5 h was -0.888%. The value for `CC1CN(CCC(=O)NCCc2cccnc2)Cc2ccccc2O1` (stereo not given) was 9.39%; that for `Cc1occc1CNC(=O)Nc1ccc2nc(N3CCOCC3)oc2c1` was -9.42%; that for `COCCSc1ccc(C(C)NC(=O)Nc2cn[nH]c2)cc1` (stereo not given) was -6.86%. As for `c1ccc(-n2ncc(CNC3CCc4ncnn4C3)n2)cc1` (stereo not given), the cytotoxicity at 70.5 h is -10.4%. For the compound `O=c1c2cccc(F)c2ncn1CCN1CCNCC1`, the cytotoxicity at 70.5 h is -2.04%. For the compound `CC(CN(C)C)Nc1nc(O)cc(Cc2ccccc2F)n1` (stereo not given), the cytotoxicity at 70.5 h worked out at 4.28%. Take `COCCN1CCC(CN(CC2CCCO2)C(=O)C2CCOCC2)CC1` (stereo not given): the cytotoxicity at 70.5 h was -5.33%. As for `O=C(CCS(=O)(=O)C1CCCC1)N1CCC(O)(C(F)(F)F)C1` (stereo not given), the cytotoxicity at 70.5 h is 19.5%. For the compound `O=C(O)c1ccc(N2CCC(Cc3ccccc3)CC2)nn1`, the cytotoxicity at 70.5 h is -1.14%. In the case of `Cc1ccccc1CN1CCCN(S(=O)(=O)N(C)C2CCCCC2)CC1`, the cytotoxicity at 70.5 h was -7.92%. Consider `Cc1ncsc1CCNC(=O)Cn1nc(C)n(Cc2ccccc2)c1=O`, for which the cytotoxicity at 70.5 h is -2.97%. In the case of `CCC(CC)CN1CCN(CC(=O)Nc2cccc3nsnc23)CC1`, the cytotoxicity at 70.5 h is -15.1%.
